# Data as given in US7211567B1, “Composition for preventing and treating type I allergy” (Sunstar, Inc., priority 1999, dated 2007).
# Columns and labels:
# [1] = tested on: histamine release (CRA-1 anti human FcεRI stimulated human whole blood cells); test: Histamine release suppression test using human whole blood; assay type: cell-based; conditions: for histamine release suppression rate: N=3, mean ± SD
# Description: Human whole blood was collected from healthy volunteers and heparin was added thereto. A blood sample was prepared by adding 6 parts by weight of a histamine release buffer (Immunotech) to 1 part by weight of the whole blood to which the heparin had been added. 200 μl of the blood sample and 100 μl of a histamine release buffer comprising astragalin (33 μM), kaempferol (33 μM) or epinephrine (1638 μM or 4917 μM) were placed in an Eppendorf tube and allowed to stand for 30 minutes while cooling in ice (final concentration: 11 μM for astragalin, 11 μM for kaempferol, 546 μM or 1639 μM for epinephrine).
# Centrifugal separation (3000 rpm, 5 minutes, 4° C.) was then carried out and the supernatant removed, and the resulting cells were again put into 300 μl of a histamine release buffer. 4.5 μl of 1 mg/ml CRA-1 (an anti human FcεRI receptor antibody, Cosmo Bio) was next added to the mixture (final CRA-1 concentration 15 μg/ml), and incubation was carried out for 30 minutes at 37° C. After centrifugation (3000 rpm, 10 minutes, 4° C.), the amount of histamine in the supernatant was measured using a histamine EIA kit (Immunotech). The histamine release suppression rate (%) was then calculated using undermentioned equation 3 from histamine amounts calculated from a calibration curve. The measurements were carried out with N=3, and the measurement values were represented by the mean and standard deviation.
# [formula] A: Amount of histamine released from cells to which astragalin/kaempferol/epinephrine added (n mole) B: Amount of histamine released from untreated cells (n mole) C: Amount of histamine released from cells to which only CRA-1 added (n mole)
# serum IgE level = test: Intake test using NC/Nga mice: serum IgE level; assay type: in vivo, NC/Nga male mice; conditions: 0.0007% astragalin in diet; end of experiment (13 weeks); control 6,018 ng/ml; difference statistically significant
# Description: (§1) Ten 4-week-old NC/Nga male mice were purchased from Japan SLC, and were reared at a room temperature of 23±3° C. and a humidity of 55±15%, with a 12 hour light-dark cycle (light period 7:00 to 19:00). The mice were kept 5 to a cage, and were fed a standard diet (Labo MR Stock, Nihon Nosan Kogyo K.K.) for a 7-day preliminary period, before being divided into a control group and a group to be administered astragalin, each of 5 mice. The mice were then allowed to eat the following diets ad libitum. Control group: A diet prepared by adding a corn starch (0.0007%, Oriental Enzyme K.K.) to MF powder (Oriental Enzyme K.K.) and then mixing in a mixer.
# (§2) Astragalin-administered group: A diet prepared by adding astragalin (0.0007%) to the MF powder and then mixing in a mixer.
# The serum IgE level was measured at the start of the experiment and then at 2-week intervals until the end of the experiment by collecting blood from the orbit and then using a mouse IgE measurement kit ‘Yamasa’ EIA (lot 702). The serum IgE level measurement values were represented by the mean and standard deviation. The differences between the two groups were tested for statistical significance using t-tests, and a significance level of 5% or less was determined significant.
# [2] = tested on: IL-4 mRNA expression in human basophilic leukemia cell line (KU812); test: Expression of IL-4 mRNA using RT-PCR in KU812 cells; assay type: cell-based; conditions: A23187 ionophore 1 μM
# Description: A human basophilic leukemia cell line (KU812) was cultured at 37° C. with 5% CO2 in an RPMI 1640 culture medium (Gibco) containing 10% bovine fetal serum (treated at 56° C. for 30 minutes). The KU812 cells (5×10^5 cells/ml) were then stimulated using astragalin (0, 1.1, 3.3 or 11 μM) and an A23187 ionophore (1 μM). After washing, the total RNA was collected using RNAzol (Biotex, USA). 500 ng of the collected total RNA was mixed with an RT mixture (Perkin Elmer Cetus, USA), and then incubation was carried out for 5 minutes at 99° C. followed by 60 minutes at 37° C. After the RT products had been obtained, PCR amplification was carried out using an IL-4-specific primer and β-actin-specific primer. The products were subjected to migration in 2% agarose gel and stained with ethidium bromide, and then the amount of expression was evaluated.
# pollinosis symptoms = test: Pollinosis symptom scores in volunteers drinking astragalin solution; assay type: in vivo, human volunteers; conditions: for Impediment to daily life total point score / Nasal congestion total point score / Nasal discharge total point score / Sneezing total point score: mean of 13 volunteers
# Description: Thirteen volunteers who had previously experienced pollinosis were asked to drink 240 μg of astragalin (in the form of 1 ml of concentrated persimmon leaf extract) dissolved in a suitable amount (50 to 200 ml) of water or hot water twice a day (morning and evening) starting 14 days before the start of the pollen season and ending 14 days after the start of the pollen season.
# Sneezing, nasal discharge, nasal congestion and extent of impediment to daily life were evaluated using a points system both during the 7 days immediately before stopping drinking the astragalin solution (‘while drinking’ below) and during the 7 days immediately after stopping drinking the astragalin solution (‘after stopping drinking’ below).
# For sneezing, 1 point was recorded for each sneeze. For nasal discharge, 1 point was recorded each time the nose was blown. […] For extent of impediment to daily life, 3 points were recorded when one could not settle down to work at all, 2 points were recorded when there was some impediment to working, 1 point was recorded when there was little impediment to working, and 0 points were recorded when there was no impediment to working; points were recorded daily.
# The total point scores for the 7-day ‘while drinking’ period and the 7-day ‘after stopping drinking’ period are shown in Table 1 below as mean values over the 13 volunteers.
# [3] = tested on: passive cutaneous anaphylaxis (auricula swelling); test: Suppression of passive cutaneous anaphylaxis (PCA) in mice; assay type: in vivo, ddY male mice; conditions: astragalin 1.25 mg/kg oral
# Description: Ten 5-week-old ddY male mice were purchased from Japan SLC, and were reared at a room temperature of 23±3° C. and a humidity of 55±15%, with a 12 hour light-dark cycle (light period 7:00 to 19:00). The mice were kept 5 to a cage, and were fed a standard diet (Labo MR Stock, Nihon Nosan Kogyo K.K.) for a 7-day preliminary period, before being divided into a group to be administered astragalin and a control group each of 5 mice. A 0.025% (w/v) solution of astragalin in distilled water was forcedly orally administered (1.25 mg/5 ml/kg) to the astragalin-administered group using a metal stomach tube, while distilled water was forcedly orally administered (5 ml/kg) to the control group. One hour after the administration, 20 μl of an anti-DNP mouse IgE antibody (10 μg/ml) was intracutaneously injected into the right auricula and 20 μl of physiological saline into the left auricula of each mouse. 24 hours after the intracutaneous injections, 100 μl of DNP-BSA (1 mg/ml) was intravenously injected into the tail of each mouse. 15 minutes later, the thicknesses of the left and right auriculae of each mouse were measured three times using a thickness gauge (Ozaki Seisakusho K.K.). The auricula swelling rate was then calculated for each group using undermentioned equation 1, and the auricula swelling suppression rate was calculated using undermentioned equation 2. The measurement values were represented by the mean and standard deviation.
# [4] = tested on: atopic dermatitis in NC/Nga mice; test: Intake test using NC/Nga mice: dermal symptoms of atopic dermatitis; assay type: in vivo, NC/Nga male mice; conditions: 0.0007% astragalin in diet ad libitum; end of experiment (13 weeks old); 5 mice; control 4 of 5 developed symptoms
# Description: NC/Nga mice are conventional grade animals, and atopic dermatitis model mice that spontaneously develop atopic dermatitis. Moreover, the development of atopy is accompanied by a rise in serum IgE level.
# as §1, §2
# The following judgement criteria were used.
# Slight inflammation or scratch wounds: 1
# Medium degree inflammation, scratch wounds or bleeding: 2
# Severe inflammation, scratch wounds or bleeding: 3
# For each mouse, the judgement was carried out for each of the head, the shoulders and the back, and then the highest of the three scores was taken as the ‘maximum score’. […]
# [5] = after stopping drinking (7 days immediately after)
# [6] = while drinking (7 days before stopping), 240 μg astragalin twice a day, p 0.003
smiles,measurement,setting,value
O=c1c(O)c(-c2ccc(O)cc2)oc2cc(O)cc(O)c12 [kaempferol],histamine release suppression rate,[1]; 11 μM final concentration,31±9%
"O=c1c(O[C@@H]2O[C@H](CO)[C@@H](O)[C@H](O)[C@H]2O)c(-c2ccc(O)cc2)oc2cc(O)cc(O)c12 [astragalin, kaempferol-3-glucoside]",serum IgE level,serum IgE level,"1,225 ng/ml"
same,IL-4 expression,[2]; astragalin 3.3 μM or 11 μM,particularly marked effects
same,IL-4 expression,"[2]; astragalin 1.1, 3.3 or 11 μM",suppressed
same,Impediment to daily life total point score,pollinosis symptoms; [5],10 ± 10 points
same,Nasal congestion total point score,pollinosis symptoms; [5],13 ± 11 points
same,Nasal discharge total point score,pollinosis symptoms; [5],62 ± 83 points
same,Sneezing total point score,pollinosis symptoms; [5],68 ± 79 points
same,rough skin condition,"pollinosis symptoms; two of the volunteers with rough skin before treatment, while drinking the astragalin solution",improved
same,Sneezing total point score,"pollinosis symptoms; while drinking (7 days before stopping), 240 μg astragalin twice a day as concentrated persimmon leaf extract, p 0.001",23 ± 21 points
same,Nasal congestion total point score,pollinosis symptoms; [6],3 ± 3 points
same,Nasal discharge total point score,pollinosis symptoms; [6],21 ± 26 points
same,Impediment to daily life total point score,"pollinosis symptoms; while drinking (7 days before stopping), 240 μg astragalin twice a day, p 0.005",1 ± 2 points
same,histamine release suppression rate,[1]; 11 μM final concentration,50±7%
same,histamine release suppression action about the same as that of epinephrine of x times the concentration,[1]; astragalin 11 μM versus epinephrine 1639 μM,~150 times
same,right auricula thickness,"[3]; anti-DNP IgE-injected right auricula, 15 min after DNP-BSA i.v., mean ± SD",0.286±0.017 mm
same,auricula swelling suppression rate,[3]; versus distilled water control,33%
same,auricula swelling rate,[3]; control 27.2±12.5%,18.2±5.0%
same,left auricula thickness,"[3]; saline-injected left auricula, 15 min after DNP-BSA i.v., mean ± SD",0.242±0.013 mm
same,development of atopic dermatitis symptoms,[4],not one mouse had developed symptoms
CNC[C@H](O)c1ccc(O)c(O)c1 [epinephrine],histamine release suppression rate,[1]; 546 μM final concentration,31±3%
same,histamine release suppression rate,[1]; 1639 μM final concentration,55±4%
